Assay [1] deals with STE20-like serine/threonine-protein kinase (Homo sapiens) (UniProt Q9H2G2). As to the kind of experiment: Inhibition of human STK2 at 500 nM by HotSpot assay relative to control.
Assay [2] deals with Misshapen-like kinase 1 (Homo sapiens) (UniProt Q8N4C8). As to the kind of experiment: Inhibition of human MINK1 at 500 nM by HotSpot assay relative to control.
For assay [3], the target named is Protein kinase C gamma type (Homo sapiens) (UniProt P05129). In words: Inhibition of human PKCg at 500 nM by HotSpot assay relative to control.
The target in assay [4] is Mitogen-activated protein kinase kinase kinase 10 (Homo sapiens) (UniProt Q02779). In words: Inhibition of human MAP3K10 at 500 nM by HotSpot assay relative to control.
The target of assay [5] is STE20/SPS1-related proline-alanine-rich protein kinase (Homo sapiens) (UniProt Q9UEW8). As to the kind of experiment: Inhibition of human STLK3 at 500 nM by HotSpot assay relative to control.
Assay [6] deals with T1, Activin receptor type-1 (Homo sapiens) (UniProt Q04771).
T1 sequence (whole entry): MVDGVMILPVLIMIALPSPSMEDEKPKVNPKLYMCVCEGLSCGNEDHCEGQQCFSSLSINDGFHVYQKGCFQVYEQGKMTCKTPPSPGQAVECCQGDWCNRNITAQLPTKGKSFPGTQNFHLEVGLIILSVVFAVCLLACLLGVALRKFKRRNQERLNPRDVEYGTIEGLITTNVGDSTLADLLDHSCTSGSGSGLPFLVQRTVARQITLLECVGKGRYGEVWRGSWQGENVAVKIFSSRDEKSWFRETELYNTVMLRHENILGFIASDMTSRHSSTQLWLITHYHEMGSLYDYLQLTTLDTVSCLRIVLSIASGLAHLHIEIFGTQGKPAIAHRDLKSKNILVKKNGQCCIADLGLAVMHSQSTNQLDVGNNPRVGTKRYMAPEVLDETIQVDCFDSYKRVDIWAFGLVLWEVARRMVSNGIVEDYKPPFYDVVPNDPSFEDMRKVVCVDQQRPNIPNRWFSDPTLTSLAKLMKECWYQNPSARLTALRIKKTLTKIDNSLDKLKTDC
In words: Inhibition of human ALK2 at 500 nM by HotSpot assay relative to control.

Assay [7] deals with Macrophage-stimulating protein receptor (Homo sapiens) (UniProt Q04912). As to the kind of experiment: Inhibition of human MST1R at 500 nM by HotSpot assay relative to control.
Assay [8] deals with Mitogen-activated protein kinase 1 (Homo sapiens) (UniProt P28482). The following applies: dose 500.0 nM.
Description: Inhibition of human ERK2 at 500 nM by HotSpot assay relative to control
Assay [9] has as its target T2, cGMP-dependent protein kinase 1 (Homo sapiens) (UniProt Q13976).
T2 sequence (whole entry): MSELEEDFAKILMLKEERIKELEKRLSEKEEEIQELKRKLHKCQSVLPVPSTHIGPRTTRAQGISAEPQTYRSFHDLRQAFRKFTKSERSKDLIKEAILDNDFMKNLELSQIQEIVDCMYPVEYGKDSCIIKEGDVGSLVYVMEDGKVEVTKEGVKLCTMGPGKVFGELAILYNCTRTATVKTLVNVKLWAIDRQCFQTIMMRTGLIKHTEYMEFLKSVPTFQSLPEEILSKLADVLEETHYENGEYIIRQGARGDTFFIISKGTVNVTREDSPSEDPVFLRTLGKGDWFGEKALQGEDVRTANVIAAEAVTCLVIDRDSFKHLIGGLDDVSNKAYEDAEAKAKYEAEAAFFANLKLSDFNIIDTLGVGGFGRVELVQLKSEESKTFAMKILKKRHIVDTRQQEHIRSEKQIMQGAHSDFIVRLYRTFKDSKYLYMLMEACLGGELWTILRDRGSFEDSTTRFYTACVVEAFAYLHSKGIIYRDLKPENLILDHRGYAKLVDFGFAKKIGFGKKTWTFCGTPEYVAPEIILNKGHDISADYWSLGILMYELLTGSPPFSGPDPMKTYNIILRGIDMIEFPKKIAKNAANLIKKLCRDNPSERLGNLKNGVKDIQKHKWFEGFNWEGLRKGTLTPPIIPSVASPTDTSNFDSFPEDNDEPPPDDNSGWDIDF
In words: Inhibition of human PKG1a at 500 nM by HotSpot assay relative to control.

Assay [10] has as its target T3, Serine/threonine-protein kinase ULK1 (Homo sapiens) (UniProt O75385).
T3 sequence (whole entry): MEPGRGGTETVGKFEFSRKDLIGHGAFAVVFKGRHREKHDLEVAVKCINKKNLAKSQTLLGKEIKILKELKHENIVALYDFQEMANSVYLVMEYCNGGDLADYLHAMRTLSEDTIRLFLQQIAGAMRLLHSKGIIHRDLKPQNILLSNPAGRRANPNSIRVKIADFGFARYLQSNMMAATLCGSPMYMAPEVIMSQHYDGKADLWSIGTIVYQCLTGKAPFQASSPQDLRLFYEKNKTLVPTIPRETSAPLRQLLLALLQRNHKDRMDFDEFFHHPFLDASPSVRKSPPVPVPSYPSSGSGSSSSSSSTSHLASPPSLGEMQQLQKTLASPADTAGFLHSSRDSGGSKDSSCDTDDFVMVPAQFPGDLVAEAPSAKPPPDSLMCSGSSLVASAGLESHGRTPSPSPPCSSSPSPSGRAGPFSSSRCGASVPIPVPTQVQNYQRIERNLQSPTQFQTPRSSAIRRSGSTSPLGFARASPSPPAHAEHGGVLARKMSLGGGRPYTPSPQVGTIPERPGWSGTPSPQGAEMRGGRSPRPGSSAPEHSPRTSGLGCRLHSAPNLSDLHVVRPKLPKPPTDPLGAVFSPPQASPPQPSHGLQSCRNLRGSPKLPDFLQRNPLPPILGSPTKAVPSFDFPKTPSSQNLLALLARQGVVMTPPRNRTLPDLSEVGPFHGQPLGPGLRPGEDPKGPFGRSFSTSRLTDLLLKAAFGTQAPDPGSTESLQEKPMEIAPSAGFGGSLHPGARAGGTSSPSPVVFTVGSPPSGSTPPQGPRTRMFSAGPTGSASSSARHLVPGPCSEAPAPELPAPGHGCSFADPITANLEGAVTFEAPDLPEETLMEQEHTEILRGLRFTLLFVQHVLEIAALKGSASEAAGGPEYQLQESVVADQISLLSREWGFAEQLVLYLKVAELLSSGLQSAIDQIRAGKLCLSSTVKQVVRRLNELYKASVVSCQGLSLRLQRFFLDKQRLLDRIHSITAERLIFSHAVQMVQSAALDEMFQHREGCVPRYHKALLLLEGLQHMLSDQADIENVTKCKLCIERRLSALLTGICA
As to the kind of experiment: Inhibition of human ULK1 at 500 nM by HotSpot assay relative to control.

Assay [11] deals with Ephrin type-A receptor 7 (Homo sapiens) (UniProt Q15375). In words: Inhibition of human EPHA7 at 500 nM by HotSpot assay relative to control.

The structures appear in SMILES notation.

Misshapen-like kinase 1 (Homo sapiens), sequence (Q8N4C8 whole entry, looked up): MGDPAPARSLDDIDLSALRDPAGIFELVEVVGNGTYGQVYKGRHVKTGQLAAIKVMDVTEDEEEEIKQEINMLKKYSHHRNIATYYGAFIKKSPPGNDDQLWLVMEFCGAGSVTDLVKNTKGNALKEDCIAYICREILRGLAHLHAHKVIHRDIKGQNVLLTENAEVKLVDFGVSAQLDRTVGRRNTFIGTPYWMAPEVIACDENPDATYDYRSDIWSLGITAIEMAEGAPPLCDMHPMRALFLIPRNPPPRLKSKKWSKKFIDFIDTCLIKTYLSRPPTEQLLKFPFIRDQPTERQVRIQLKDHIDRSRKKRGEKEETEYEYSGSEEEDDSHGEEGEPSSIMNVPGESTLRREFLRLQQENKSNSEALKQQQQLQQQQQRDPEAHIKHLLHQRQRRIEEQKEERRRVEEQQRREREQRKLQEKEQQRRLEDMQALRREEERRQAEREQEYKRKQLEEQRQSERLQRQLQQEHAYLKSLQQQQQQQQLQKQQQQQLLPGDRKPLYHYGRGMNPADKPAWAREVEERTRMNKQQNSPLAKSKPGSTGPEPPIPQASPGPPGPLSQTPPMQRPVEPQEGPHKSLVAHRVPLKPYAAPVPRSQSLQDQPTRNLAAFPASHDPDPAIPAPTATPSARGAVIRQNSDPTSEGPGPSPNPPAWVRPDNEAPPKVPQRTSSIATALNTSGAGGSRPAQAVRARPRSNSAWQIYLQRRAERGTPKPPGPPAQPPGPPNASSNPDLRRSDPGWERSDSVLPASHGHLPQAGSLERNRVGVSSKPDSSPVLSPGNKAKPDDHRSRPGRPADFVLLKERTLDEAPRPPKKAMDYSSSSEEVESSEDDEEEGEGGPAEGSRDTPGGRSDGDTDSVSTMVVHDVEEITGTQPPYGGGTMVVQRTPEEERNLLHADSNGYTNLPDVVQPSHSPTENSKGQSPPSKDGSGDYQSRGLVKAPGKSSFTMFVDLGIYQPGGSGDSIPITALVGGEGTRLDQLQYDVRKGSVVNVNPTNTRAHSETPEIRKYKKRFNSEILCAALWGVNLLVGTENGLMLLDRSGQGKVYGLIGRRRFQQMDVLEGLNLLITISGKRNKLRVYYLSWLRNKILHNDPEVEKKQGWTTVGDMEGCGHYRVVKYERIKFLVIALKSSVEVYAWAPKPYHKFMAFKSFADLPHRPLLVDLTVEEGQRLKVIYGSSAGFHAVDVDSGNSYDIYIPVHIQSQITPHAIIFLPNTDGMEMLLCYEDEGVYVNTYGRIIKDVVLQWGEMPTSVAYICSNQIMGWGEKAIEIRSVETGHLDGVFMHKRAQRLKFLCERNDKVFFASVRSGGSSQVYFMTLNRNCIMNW
Mitogen-activated protein kinase 1 (Homo sapiens), sequence (P28482 whole entry): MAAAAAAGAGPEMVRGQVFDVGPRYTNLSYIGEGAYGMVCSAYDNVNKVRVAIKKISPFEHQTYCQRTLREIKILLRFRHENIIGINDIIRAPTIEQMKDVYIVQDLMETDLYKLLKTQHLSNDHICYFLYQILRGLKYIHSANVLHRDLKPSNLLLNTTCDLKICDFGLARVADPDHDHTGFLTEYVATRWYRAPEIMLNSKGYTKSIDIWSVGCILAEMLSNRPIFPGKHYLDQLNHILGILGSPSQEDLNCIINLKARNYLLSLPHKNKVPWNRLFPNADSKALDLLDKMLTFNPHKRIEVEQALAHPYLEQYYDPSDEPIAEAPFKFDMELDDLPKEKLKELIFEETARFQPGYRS
Ephrin type-A receptor 7 (Homo sapiens), sequence (Q15375 28-998 limits assumed): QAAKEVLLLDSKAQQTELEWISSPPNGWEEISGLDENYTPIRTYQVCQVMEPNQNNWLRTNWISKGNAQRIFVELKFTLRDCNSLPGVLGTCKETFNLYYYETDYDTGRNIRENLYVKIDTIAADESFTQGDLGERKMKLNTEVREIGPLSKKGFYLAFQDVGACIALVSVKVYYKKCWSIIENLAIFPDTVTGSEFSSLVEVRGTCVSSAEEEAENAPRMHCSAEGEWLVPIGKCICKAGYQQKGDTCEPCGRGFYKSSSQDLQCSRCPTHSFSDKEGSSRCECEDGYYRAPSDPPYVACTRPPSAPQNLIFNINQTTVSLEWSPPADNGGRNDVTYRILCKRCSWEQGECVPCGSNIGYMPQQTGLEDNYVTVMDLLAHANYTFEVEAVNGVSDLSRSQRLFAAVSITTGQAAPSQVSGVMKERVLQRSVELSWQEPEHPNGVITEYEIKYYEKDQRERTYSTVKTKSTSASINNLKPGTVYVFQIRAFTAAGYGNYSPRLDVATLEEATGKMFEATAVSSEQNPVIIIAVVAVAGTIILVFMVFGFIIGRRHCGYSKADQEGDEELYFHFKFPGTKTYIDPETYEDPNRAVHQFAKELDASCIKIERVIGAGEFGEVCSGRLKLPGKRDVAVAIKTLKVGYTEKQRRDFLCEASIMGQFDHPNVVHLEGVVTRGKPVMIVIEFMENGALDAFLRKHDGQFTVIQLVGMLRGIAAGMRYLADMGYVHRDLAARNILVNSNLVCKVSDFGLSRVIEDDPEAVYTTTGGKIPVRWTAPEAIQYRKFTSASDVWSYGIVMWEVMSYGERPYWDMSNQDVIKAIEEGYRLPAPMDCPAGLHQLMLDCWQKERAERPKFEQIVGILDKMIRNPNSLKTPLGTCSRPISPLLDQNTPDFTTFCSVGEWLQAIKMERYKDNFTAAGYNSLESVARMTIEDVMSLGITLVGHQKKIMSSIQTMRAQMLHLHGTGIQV
Macrophage-stimulating protein receptor (Homo sapiens), sequence (Q04912 25-304 limits assumed): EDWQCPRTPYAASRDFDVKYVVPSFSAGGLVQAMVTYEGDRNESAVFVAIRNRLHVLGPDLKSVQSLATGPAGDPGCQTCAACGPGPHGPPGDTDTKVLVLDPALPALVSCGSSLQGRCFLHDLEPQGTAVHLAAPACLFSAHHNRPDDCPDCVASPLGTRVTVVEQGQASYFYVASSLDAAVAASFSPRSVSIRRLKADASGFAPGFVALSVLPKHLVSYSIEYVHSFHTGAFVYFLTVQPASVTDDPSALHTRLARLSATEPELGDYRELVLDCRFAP
Macrophage-stimulating protein receptor (Homo sapiens), sequence (Q04912 310-1400 limits assumed): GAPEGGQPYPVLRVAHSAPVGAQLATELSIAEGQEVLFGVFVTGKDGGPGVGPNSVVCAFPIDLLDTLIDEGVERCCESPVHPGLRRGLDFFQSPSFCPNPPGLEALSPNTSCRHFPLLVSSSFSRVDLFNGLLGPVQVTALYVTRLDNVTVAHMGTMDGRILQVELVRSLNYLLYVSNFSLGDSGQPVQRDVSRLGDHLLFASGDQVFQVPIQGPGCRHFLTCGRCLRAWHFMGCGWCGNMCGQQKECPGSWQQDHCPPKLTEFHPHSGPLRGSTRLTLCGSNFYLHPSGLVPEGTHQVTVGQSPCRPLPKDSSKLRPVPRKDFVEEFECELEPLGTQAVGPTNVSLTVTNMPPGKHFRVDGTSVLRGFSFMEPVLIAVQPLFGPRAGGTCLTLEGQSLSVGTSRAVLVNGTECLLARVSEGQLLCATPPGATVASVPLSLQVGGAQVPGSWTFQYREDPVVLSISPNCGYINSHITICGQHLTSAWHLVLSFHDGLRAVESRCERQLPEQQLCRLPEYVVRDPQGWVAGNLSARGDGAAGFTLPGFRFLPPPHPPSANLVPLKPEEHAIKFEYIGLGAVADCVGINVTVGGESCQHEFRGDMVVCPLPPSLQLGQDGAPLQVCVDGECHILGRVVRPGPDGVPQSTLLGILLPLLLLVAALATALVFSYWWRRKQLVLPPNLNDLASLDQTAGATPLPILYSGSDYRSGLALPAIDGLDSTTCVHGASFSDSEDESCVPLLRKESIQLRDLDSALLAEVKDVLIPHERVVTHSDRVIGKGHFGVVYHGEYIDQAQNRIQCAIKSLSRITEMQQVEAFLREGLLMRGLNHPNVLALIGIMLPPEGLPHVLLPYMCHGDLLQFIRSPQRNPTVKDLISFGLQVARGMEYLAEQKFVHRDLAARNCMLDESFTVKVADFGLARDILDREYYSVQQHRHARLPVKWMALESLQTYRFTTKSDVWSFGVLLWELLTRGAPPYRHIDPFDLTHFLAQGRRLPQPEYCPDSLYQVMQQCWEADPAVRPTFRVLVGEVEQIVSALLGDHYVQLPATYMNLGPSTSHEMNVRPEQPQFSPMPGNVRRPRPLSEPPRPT
Mitogen-activated protein kinase kinase kinase 10 (Homo sapiens), sequence (Q02779 whole entry, looked up): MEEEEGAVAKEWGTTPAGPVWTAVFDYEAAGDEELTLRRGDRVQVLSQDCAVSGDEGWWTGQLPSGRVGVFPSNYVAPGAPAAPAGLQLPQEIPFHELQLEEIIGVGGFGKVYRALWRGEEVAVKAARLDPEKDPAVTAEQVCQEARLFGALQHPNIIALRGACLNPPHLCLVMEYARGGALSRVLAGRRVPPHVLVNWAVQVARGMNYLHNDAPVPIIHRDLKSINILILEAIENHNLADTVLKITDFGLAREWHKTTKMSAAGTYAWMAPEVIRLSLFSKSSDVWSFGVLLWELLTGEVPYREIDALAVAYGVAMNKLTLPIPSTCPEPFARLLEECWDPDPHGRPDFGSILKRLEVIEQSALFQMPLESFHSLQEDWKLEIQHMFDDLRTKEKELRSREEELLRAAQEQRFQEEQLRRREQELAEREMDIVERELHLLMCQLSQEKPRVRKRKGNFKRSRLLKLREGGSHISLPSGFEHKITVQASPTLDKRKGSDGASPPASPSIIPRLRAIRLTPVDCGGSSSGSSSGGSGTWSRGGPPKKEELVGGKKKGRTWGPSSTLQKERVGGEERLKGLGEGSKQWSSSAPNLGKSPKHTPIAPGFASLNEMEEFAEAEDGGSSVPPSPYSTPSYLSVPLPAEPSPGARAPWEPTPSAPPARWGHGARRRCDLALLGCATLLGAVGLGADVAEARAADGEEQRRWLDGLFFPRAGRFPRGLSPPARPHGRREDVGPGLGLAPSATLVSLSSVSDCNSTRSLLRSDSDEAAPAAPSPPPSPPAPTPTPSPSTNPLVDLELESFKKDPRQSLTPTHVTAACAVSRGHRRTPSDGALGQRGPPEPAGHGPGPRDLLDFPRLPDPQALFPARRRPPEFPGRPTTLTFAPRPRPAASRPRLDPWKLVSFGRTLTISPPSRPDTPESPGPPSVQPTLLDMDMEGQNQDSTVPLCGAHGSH

By inhibition is commonly meant the relative decrease from the control value, in per cent. As for `Oc1n[nH]c2nnc(-c3c(-c4ccccc4)nn4ccccc34)cc12`, the inhibition is 0.54% in [1]; 2.28% in [2]; -2.44% in assay [3]; 5.25% in assay [4]; 7.91% in assay [5]; 0.23% in assay [6]. Moreover, the inhibition in [7] is -6.32%; in [8], -0.62%; in assay [9], -5.37%; in assay [10], 0.87%; in [11], 0.96%.

For `Nc1n[nH]c2nnc(-c3c(-c4ccccc4)nn4ccccc34)cc12`, the inhibition was 6.01% in assay [1]; 27.1% in [2]; -2.64% in assay [3]; 9.29% in [4]; 10.9% in [5]; -7.19% in assay [6]. Besides, the inhibition is -1.66% in assay [7]; 12.8% in [8]; 6.39% in assay [9]; 2.87% in assay [10]; 0.55% in [11].

These data come from ChEMBL document CHEMBL5653615 (J Biol Chem, 2013).
